The subject of assay [1] is Phakopsora pachyrhizi. Kind of assay: whole plant or invertebrate. It is filed as in vivo. The note with it: in Glycine max, foliar, read-out: % activity observed. An excerpt: (§1) A synergistic effect exists whenever the action of an active ingredient combination is greater than the action expected from the effect of the individual components.
(§2) The action to be expected (E) for a given active ingredient combination obeys the so-called COLBY formula and can be calculated as follows (COLBY, S. R. “Calculating synergistic and antagonistic responses of herbicide combination”. Weeds, Vol. 15, pages 20-22; 1967):
(§3) ppm=milligrams of active ingredient (=a.i.) per litre of spray mixture X=% action by active ingredient I using p ppm of active ingredient Y=% action by active ingredient II using q ppm of active ingredient.
(§4) According to Colby, the expected (additive) action of active ingredients I+II using p+q ppm of active ingredient is
(§5) If the action actually observed (O) is greater than the expected action (E), then the action of the combination is superadditive, i.e. there is a synergistic effect.
(§6) A series of leaf disc tests were conducted to show the effects of tank mixtures of glyphosate and the ortho-substituted phenyl-amide (OPA) fungicides represented by structures F-5 and F-9 on Asian soybean rust. The soybean variety tested was brand Williams82 glyphosate sensitive soybean. The leaf source for the testing was the first trifoliate leaf. Six (6) repetitions for each formulation and at each rate were conducted. Treatment of the leaf with the recited active ingredients was conducted 4 weeks after planting. The leaves were inoculated with Phakopsora pachyrhizi (Asian soybean rust (ASR)) one (1) day after treatment. Evaluation of the leaf was conducted ten (10) days after inoculation and the mean percent infestation of the six repetitions is reported in Tables 3 and 4.
The glyphosate source was Touchdown® HiTech herbicide (Syngenta Corp.), containing the potassium salt of glyphosate and no adjuvant system. The compound OPA F-5 used was a compound of formula F-5, wherein the ratio of racemic compounds of formula F-3 (syn) to racemic compounds of formula F-4 (anti) was 9:1. The compound OPA F-9 used was a compound of formula F-9, wherein the ratio of racemic compounds of formula F-7 (trans) to racemic compounds of formula F-8 (cis) was around 100:1. The fungicides used were EC100 formulations of OPA F-5 and OPA F-9 which are emulsion concentrates containing 100 ga.i./L. The rates of the active ingredients used in the tests are set in the table as mg active ingredient (a.i.)/L.

The test system of assay [2] is Phakopsora pachyrhizi. Kind of assay: Leaf disc test with Phakopsora pachyrhizi on glyphosate sensitive soybean, leaf disks treated (Example 4). It is filed as in vivo.
Description: as §1, §2, §3, §4, §5
as §6, with “glyphosate and pesticides or plant activators on Asian” for “glyphosate and the ortho-substituted phenyl-amide (OPA) fungicides represented by structures F-5 and F-9 on Asian”, “the leaf disks with the” for “the leaf with the”, “in Tables 8-11.” for “in Tables 3 and 4.”
As glyphosate source Touchdown® HiTech or Zapp® QI was used. The fungicides were used as commercial formulations: Bion® WG50 plant activator comprising acibenzolar-S-methyl (Syngenta Corp.), Opus® SC125 fungicide comprising epoxiconazole commercially (BASF AG), Tilt® EC250 fungicide comprising propiconazole (Syngenta Corp.), Quadris® SC250 fungicide comprising azoxystrobin (Syngenta Corp.). The rates of the active ingredients used in the tests are set in Tables 8-11 as mg active ingredient (a.i.)/L.

[3] abbreviates: Glyphosate TD HiTech SL523 2.5 mg a.i./L, Table 9 (check 77).
Where [4] appears, read: Glyphosate TD HiTech SL523 2.5 mg a.i./L, Table 11 (check 80).
Where [5] appears, read: Glyphosate TD HiTech SL523 7.4 mg a.i./L, Table 11 (check 80).
[6] abbreviates: Glyphosate TD HiTech SL523 7.4 mg a.i./L, Tables 9-10 (check 77).
[7] abbreviates: Glyphosate TD HiTech SL523 22.2 mg a.i./L.
Setting [8] is: Glyphosate Zapp QI SL500 22.2 mg a.i./L.
[9] abbreviates: Glyphosate Zapp QI SL500 66.7 mg a.i./L.

Results on 1 molecule are retold here after US20090023687A1, “Method for Controlling Phytopathogenic Organisms” (SYNGENTA CROP PROTECTION, INC., priority 2005, published 2009).

Regarding `O=C(O)CNCP(=O)(O)O` [Glyphosate, glyphosate], the inhibition at 2.5 µg/mL in the assay on Phakopsora pachyrhizi [1] (Glyphosate 2.5 mg a.i./L (Touchdown HiTech)) amounted to 0%. In addition, the inhibition at 7.4 µg/mL in the assay with Phakopsora pachyrhizi [1] (Glyphosate 7.4 mg a.i./L (Touchdown HiTech)) is 0%. In addition, the inhibition at 22.2 µg/mL in the assay with Phakopsora pachyrhizi [1] (Glyphosate 22.2 mg a.i./L (Touchdown HiTech)) is 14%. For the same molecule, the inhibition at 66.7 µg/mL in the assay on Phakopsora pachyrhizi [1] (Glyphosate 66.7 mg a.i./L (Touchdown HiTech)) amounted to 0%. Besides, the inhibition at 200 µg/mL in the assay on Phakopsora pachyrhizi [1] (Glyphosate 200.0 mg a.i./L (Touchdown HiTech)) was 0%. Moreover, in the assay with Phakopsora pachyrhizi [1] (Glyphosate 600 mg a.i./L (Touchdown HiTech)), the inhibition at 600 µg/mL worked out at 34%. In addition, the Activity observed % in the assay with Phakopsora pachyrhizi [2] (setting [3]) is 0%; in the assay on Phakopsora pachyrhizi [2] (setting [4]) it was 8%; in the assay on Phakopsora pachyrhizi [2] (setting [5]), 0%; in the assay with Phakopsora pachyrhizi [2] (setting [6]), 0%; with Phakopsora pachyrhizi [2] (setting [7]) it was 0%; in the assay with Phakopsora pachyrhizi [2] (setting [8]), 1%. For the same molecule, in the assay on Phakopsora pachyrhizi [2] (setting [9]), the Activity observed % was found to be 1%. Moreover, the Leaf attack % with Phakopsora pachyrhizi [2] (setting [3]) stood at 80%; in the assay with Phakopsora pachyrhizi [2] (setting [4]), 74%; in the assay on Phakopsora pachyrhizi [2] (setting [5]), 80%; in the assay on Phakopsora pachyrhizi [2] (setting [6]), 80%; in the assay on Phakopsora pachyrhizi [2] (setting [7]), 80%; in the assay with Phakopsora pachyrhizi [2] (setting [8]), 68%. Moreover, the Leaf attack % in the assay with Phakopsora pachyrhizi [2] (setting [9]) was 68%.
